Reference: US10696615B2, “Prenylated hydroxystilbenes” (The University of Sydney, priority 2011, dated 2020)

Tests used:
[1] = system: OVCAR-3; experiment: NCI in vitro cancer screen, Ovarian Cancer; type: cell-based, human; details: OVCAR-3, unit not printed (M)
[2] = system: HS 578T; experiment: NCI in vitro cancer screen, Breast Cancer; type: cell-based, human; details: unit not printed (M)
[3] = system: HOP-62; experiment: NCI in vitro cancer screen, Non-Small Cell Lung Cancer; type: cell-based, human; details: HOP (first HOP line), unit not printed (M)
[4] = system: MDA-MB-468; experiment: NCI in vitro cancer screen, Breast Cancer; type: cell-based, human; details: MDA-MB-468, unit not printed (M)
[5] = system: SK-OV-3; experiment: NCI in vitro cancer screen, Ovarian Cancer; type: cell-based, human; details: SK-OV-3, unit not printed (M)
[6] = system: SR; experiment: NCI in vitro cancer screen, Leukemia; type: cell-based, human; details: unit not printed (M)
[7] = system: K-562; experiment: NCI in vitro cancer screen, Leukemia; type: cell-based, human; details: K-562, unit not printed (M)
[8] = system: HCC-2998; experiment: NCI in vitro cancer screen, Colon Cancer; type: cell-based, human; details: HCC-2998, unit not printed (M)
[9] = system: HCT-116; experiment: NCI in vitro cancer screen, Colon Cancer; type: cell-based, human; details: HCT-116, unit not printed (M)
[10] = system: ACHN; experiment: NCI in vitro cancer screen, Renal Cancer; type: cell-based, human; details: unit not printed (M)
[11] = system: 786-0; experiment: NCI in vitro cancer screen, Renal Cancer; type: cell-based, human; details: 786-0, unit not printed (M)
[12] = system: NCI-H460; experiment: NCI in vitro cancer screen, Non-Small Cell Lung Cancer; type: cell-based, human; details: NCI-H460, unit not printed (M)
[13] = system: human tumor cell lines; experiment: NCI in vitro cancer screen, whole panel (summary statements); type: cell-based; details: result in words
[14] = system: IGROV1; experiment: NCI in vitro cancer screen, Ovarian Cancer; type: cell-based, human; details: IGROV1, unit not printed (M)
[15] = system: CAKI-1; experiment: NCI in vitro cancer screen, Renal Cancer; type: cell-based, human; details: CAKI-1, unit not printed (M)
[16] = system: SF-295; experiment: NCI in vitro cancer screen, CNS Cancer; type: cell-based, human; details: SF-295, unit not printed (M)
[17] = system: NCI-H226; experiment: NCI in vitro cancer screen, Non-Small Cell Lung Cancer; type: cell-based, human; details: NCI-H226, unit not printed (M)
[18] = system: SNB-19; experiment: NCI in vitro cancer screen, CNS Cancer; type: cell-based, human; details: SNB-19, unit not printed (M)
[19] = system: NCI-H23; experiment: NCI in vitro cancer screen, Non-Small Cell Lung Cancer; type: cell-based, human; details: NCI-H23, unit not printed (M)
[20] = system: TK-10; experiment: NCI in vitro cancer screen, Renal Cancer; type: cell-based, human; details: TK-10, unit not printed (M)
[21] = system: SK-MEL-5; experiment: NCI in vitro cancer screen, Melanoma; type: cell-based, human; details: SK-MEL-5, unit not printed (M)
[22] = system: ADR-RES (NCI/ADR-RES); experiment: NCI in vitro cancer screen, Ovarian Cancer; type: cell-based, human; details: NCI/ADR-RES, unit not printed (M)
[23] = system: U251; experiment: NCI in vitro cancer screen, CNS Cancer; type: cell-based, human; details: U251, unit not printed (M)
[24] = system: UACC-62; experiment: NCI in vitro cancer screen, Melanoma; type: cell-based, human; details: UACC-62, unit not printed (M)
[25] = system: MALME-3M; experiment: NCI in vitro cancer screen, Melanoma; type: cell-based, human; details: MALME-3M, unit not printed (M)
[26] = system: DU-145; experiment: NCI in vitro cancer screen, Prostate Cancer; type: cell-based, human; details: DU-145, unit not printed (M)
[27] = system: MDA-MB-435; experiment: NCI in vitro cancer screen, Melanoma; type: cell-based, human; details: MDA-MB-435, unit not printed (M)
[28] = system: SW-620; experiment: NCI in vitro cancer screen, Colon Cancer; type: cell-based, human; details: SW-620, unit not printed (M)
[29] = Homo sapiens, read-out: LC50 (the source's name)

With `COc1cc(/C=C/c2cc(O)cc(O)c2CC=C(C)C)ccc1O` [USYDS10, (E)-2-(3-methyl-2-buten-1-yl)-3,4′,5-trihydroxy-3′-methoxystilbene] as the molecule, how does the GI50 ([1]; Homo sapiens) read?
Its GI50 is 0.372 µM.

What about the CC50 [1, 29] of the same molecule?
The CC50 was greater than 100 µM.

What about the TGI [1] of the same molecule?
The TGI was 2.03E−5.

And the GI50 ([2]; Homo sapiens)?
The GI50 was 0.292 µM.

And the CC50 [2, 29]?
Its CC50 is greater than 100 µM.

What about the TGI [2] of the same molecule?
Its TGI is 2.60E−5.

What about the TGI [3] of the same molecule?
The TGI was 1.77E−5.

And the GI50 ([3]; Homo sapiens, HOP-62)?
Its GI50 is 0.581 µM.

And the CC50 ([3]; Homo sapiens, HOP-62, read-out: LC50 (the source's name))?
The CC50 was 42.3 µM.

And the GI50 ([4]; Homo sapiens)?
Its GI50 is 0.373 µM.

And the CC50 [4, 29]?
The CC50 was 44.9 µM.

And the TGI [4]?
Its TGI is 1.44E−5.

What about the GI50 ([5]; Homo sapiens) of the same molecule?
Its GI50 is 0.422 µM.

What about the CC50 [5, 29] of the same molecule?
The CC50 was 34.2 µM.

And the TGI [5]?
The TGI was 1.14E−5.

And the GI50 ([6]; Homo sapiens)?
Its GI50 is 0.188 µM.

And the CC50 [6, 29]?
The CC50 was greater than 100 µM.

What about the TGI [6] of the same molecule?
Its TGI is greater than 1.00E−4.

What about the GI50 ([7]; Homo sapiens, K562) of the same molecule?
Its GI50 is 0.386 µM.

And the CC50 ([7]; Homo sapiens, K562, read-out: LC50 (the source's name))?
Its CC50 is greater than 100 µM.

What about the TGI [7] of the same molecule?
Its TGI is 3.17E−5.

And the TGI [8]?
The TGI was 1.19E−5.

And the GI50 ([8]; Homo sapiens)?
Its GI50 is 1.81 µM.

What about the CC50 [8, 29] of the same molecule?
The CC50 was 39.8 µM.

And the TGI [9]?
The TGI was 1.30E−5.

What about the GI50 ([9]; Homo sapiens) of the same molecule?
Its GI50 is 0.48 µM.

And the LC50 (concentration killing 50% of cells) ([9]; Homo sapiens)?
Its LC50 (concentration killing 50% of cells) is 42.7 µM.

And the GI50 ([10]; Homo sapiens)?
Its GI50 is 0.903 µM.

What about the CC50 [10, 29] of the same molecule?
The CC50 was greater than 100 µM.

What about the TGI [10] of the same molecule?
Its TGI is 3.79E−5.

What about the TGI [11] of the same molecule?
The TGI was 2.01E−5.

And the GI50 ([11]; Homo sapiens)?
Its GI50 is 0.681 µM.

What about the LC50 (50% net cell kill) ([11]; Homo sapiens) of the same molecule?
Its LC50 (50% net cell kill) is 74.5 µM.

And the GI50 ([12]; Homo sapiens)?
Its GI50 is 0.381 µM.

And the CC50 [12, 29]?
The CC50 was 66.1 µM.

What about the TGI [12] of the same molecule?
The TGI was 1.29E−5.

And the “inhibition of cancerous cell growth” value [13]?
The value was “structure dependent inhibition of cancerous cell growth”.

What about the GI50 ([14]; Homo sapiens, IGROV-1) of the same molecule?
Its GI50 is 2.03 µM.

What about the CC50 ([14]; Homo sapiens, IGROV-1, read-out: LC50 (the source's name)) of the same molecule?
The CC50 was greater than 100 µM.

What about the TGI [14] of the same molecule?
The TGI was greater than 1.00E−4.

What about the TGI [15] of the same molecule?
The TGI was 6.68E−5.

What about the GI50 ([15]; Homo sapiens) of the same molecule?
The GI50 was 0.539 µM.

What about the CC50 [15, 29] of the same molecule?
Its CC50 is greater than 100 µM.

What about the GI50 ([16]; Homo sapiens) of the same molecule?
Its GI50 is 2.01 µM.

What about the CC50 [16, 29] of the same molecule?
The CC50 was greater than 100 µM.

And the TGI [16]?
The TGI was 1.91E−5.

What about the GI50 ([17]; Homo sapiens) of the same molecule?
Its GI50 is 5.35 µM.

And the LC50 (50% lethal concentration) ([17]; Homo sapiens)?
The LC50 (50% lethal concentration) was greater than 100 µM.

What about the TGI [17] of the same molecule?
The TGI was 3.50E−5.

And the GI50 ([18]; Homo sapiens)?
The GI50 was 0.613 µM.

What about the CC50 [18, 29] of the same molecule?
The CC50 was greater than 100 µM.

What about the TGI [18] of the same molecule?
The TGI was 2.28E−5.

And the GI50 ([19]; Homo sapiens)?
Its GI50 is 0.38 µM.

And the LC50 ([19]; Homo sapiens)?
The LC50 was 78.3 µM.

What about the TGI [19] of the same molecule?
The TGI was 1.52E−5.

What about the GI50 ([20]; Homo sapiens) of the same molecule?
The GI50 was 9.55 µM.

What about the LC50 ([20]; Homo sapiens) of the same molecule?
Its LC50 is greater than 100 µM.

And the TGI [20]?
Its TGI is 5.15E−5.

And the GI50 ([21]; Homo sapiens)?
Its GI50 is 0.291 µM.

And the CC50 [21, 29]?
Its CC50 is 36 µM.

And the TGI [21]?
The TGI was 1.27E−5.

What about the GI50 ([22]; Homo sapiens) of the same molecule?
Its GI50 is 0.183 µM.

And the CC50 [22, 29]?
The CC50 was greater than 100 µM.

What about the TGI [22] of the same molecule?
The TGI was 8.04E−7.

What about the GI50 ([23]; Homo sapiens, U-251) of the same molecule?
Its GI50 is 0.419 µM.

What about the CC50 ([23]; Homo sapiens, U-251, read-out: LC50 (the source's name)) of the same molecule?
The CC50 was 78.8 µM.

And the TGI [23]?
Its TGI is 1.62E−5.

And the GI50 ([24]; Homo sapiens)?
The GI50 was 0.521 µM.

And the CC50 [24, 29]?
Its CC50 is 42.8 µM.

What about the TGI [24] of the same molecule?
The TGI was 1.55E−5.

And the GI50 ([25]; Homo sapiens)?
Its GI50 is 18.7 µM.

What about the CC50 [25, 29] of the same molecule?
The CC50 was 92.9 µM.

What about the TGI [25] of the same molecule?
Its TGI is 4.17E−5.

And the TGI [26]?
The TGI was 2.05E−5.

What about the GI50 ([26]; Homo sapiens) of the same molecule?
The GI50 was 0.442 µM.

What about the CC50 [26, 29] of the same molecule?
The CC50 was greater than 100 µM.

What about the GI50 ([27]; Homo sapiens) of the same molecule?
The GI50 was 0.0385 µM.

And the CC50 [27, 29]?
The CC50 was greater than 100 µM.

And the TGI [27]?
The TGI was 2.56E−7.

And the GI50 ([28]; Homo sapiens)?
Its GI50 is 0.362 µM.

And the CC50 [28, 29]?
Its CC50 is 85.5 µM.

And the TGI [28]?
The TGI was 2.15E−5.
